According to ChEMBL document CHEMBL1135903 (J Med Chem, 2002):

What was measured:
[1] = target: T1, Carbonic anhydrase 4 (Bos taurus, UniProt Q95323)
T1 sequence (Q95323 whole entry): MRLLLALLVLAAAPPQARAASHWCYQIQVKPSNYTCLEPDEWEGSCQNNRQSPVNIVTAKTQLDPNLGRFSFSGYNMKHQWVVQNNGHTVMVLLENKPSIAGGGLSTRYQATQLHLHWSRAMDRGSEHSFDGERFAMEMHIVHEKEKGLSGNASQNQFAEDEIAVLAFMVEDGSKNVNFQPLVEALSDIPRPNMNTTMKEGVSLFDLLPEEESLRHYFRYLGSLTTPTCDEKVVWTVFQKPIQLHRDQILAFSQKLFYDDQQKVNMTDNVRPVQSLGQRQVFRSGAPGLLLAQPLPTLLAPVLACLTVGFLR
Description: Inhibitory activity against bovine carbonic anhydrase IV

[2] = target: Carbonic anhydrase 1 (Homo sapiens, UniProt P00915)
Chain of Carbonic anhydrase 1 (P00915 whole entry): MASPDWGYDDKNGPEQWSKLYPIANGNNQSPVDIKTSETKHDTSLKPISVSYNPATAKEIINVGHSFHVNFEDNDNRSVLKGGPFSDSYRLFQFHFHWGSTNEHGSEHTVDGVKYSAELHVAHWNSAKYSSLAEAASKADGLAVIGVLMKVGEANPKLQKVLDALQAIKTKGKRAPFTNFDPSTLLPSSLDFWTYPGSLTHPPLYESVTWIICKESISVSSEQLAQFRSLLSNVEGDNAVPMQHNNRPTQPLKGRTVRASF
Description: Inhibitory activity against Human carbonic anhydrase I

Compound | Ki [1] | Ki [2]
NS(=O)(=O)c1cc(S(N)(=O)=O)c(NC(=O)CN(CCN(CCN(CC(=O)O)CC(=O)Nc2c(S(N)(=O)=O)cc(S(N)(=O)=O)c(Cl)c2Cl)CC(=O)O)CC(=O)O)c(Cl)c1Cl | 25 nM | 
NS(=O)(=O)c1ccc(NC(=O)CN(CCOCCOCCN(CC(=O)O)CC(=O)Nc2ccc(S(N)(=O)=O)cc2Br)CC(=O)O)c(Br)c1 | 25 nM | 85 nM
NS(=O)(=O)c1nc2ccc(OC(=O)CN(CCOCCOCCN(CC(=O)O)CC(=O)Oc3ccc4nc(S(N)(=O)=O)sc4c3)CC(=O)O)cc2s1 | 5 nM | 21 nM
NS(=O)(=O)c1ccc(CNC(=O)CN(CCN(CC(=O)O)CC(=O)NCc2ccc(S(N)(=O)=O)cc2)CC(=O)O)cc1 [listing 1 of 2 here] | 10 nM | 
NS(=O)(=O)c1ccc(NNC(=O)CN(CCN(CCN(CC(=O)O)CC(=O)O)CC(=O)O)CC(=O)O)cc1 | 630 nM | 
NS(=O)(=O)c1ccc(NC(=O)CN(CCN(CC(=O)O)c2ccccc2O)c2ccccc2O)c(Br)c1 | 56 nM | 175 nM
NS(=O)(=O)c1ccc(CCNC(=O)CN(CCN(CC(=O)O)c2ccccc2O)c2ccccc2O)cc1 | 215 nM | 1050 nM
NS(=O)(=O)c1ccc(NC(=O)CNCCNCC(=O)O)c(Br)c1 | 54 nM | 380 nM
NS(=O)(=O)c1nc2ccc(OC(=O)CN(CCN(CCN(CC(=O)O)CC(=O)O)CC(=O)O)CC(=O)O)cc2s1 | 6 nM | 
NS(=O)(=O)c1nc2ccc(NC(=O)CN(CCN(CC(=O)O)CC(=O)O)CC(=O)O)cc2s1 | 11 nM | 48 nM
NS(=O)(=O)c1ccc(NC(=O)CNCC(=O)O)c(Cl)c1 | 165 nM | 975 nM
Cn1nc(S(N)(=O)=O)s/c1=N/C(=O)CN(CC(=O)O)CC(=O)O | 106 nM | 520 nM
NS(=O)(=O)c1nc2ccc(NC(=O)CNCC(=O)O)cc2s1 | 14 nM | 65 nM
NS(=O)(=O)c1nc2ccc(NC(=O)CN(CCOCCOCCN(CC(=O)O)CC(=O)Nc3ccc4nc(S(N)(=O)=O)sc4c3)CC(=O)O)cc2s1 | 4 nM | 23 nM
NS(=O)(=O)c1nc2ccc(NC(=O)CN(CCN(CC(=O)O)c3ccccc3O)c3ccccc3O)cc2s1 | 13 nM | 52 nM
NS(=O)(=O)c1ccc(COC(=O)CNCC(=O)O)cc1 | 350 nM | 1260 nM
NS(=O)(=O)c1ccc(CCNC(=O)CN(CC(=O)O)CC(=O)O)cc1 | 240 nM | 3300 nM
Cn1nc(S(N)(=O)=O)s/c1=N/C(=O)CN(CCOCCOCCN(CC(=O)O)CC(=O)/N=c1/sc(S(N)(=O)=O)nn1C)CC(=O)O | 7 nM | 32 nM
NS(=O)(=O)c1cc(S(N)(=O)=O)c(NC(=O)CNCC(=O)O)cc1Cl | 145 nM | 400 nM
NS(=O)(=O)c1ccccc1NC(=O)CN(CCN(CCN(CC(=O)O)CC(=O)O)CC(=O)O)CC(=O)O | 550 nM | 
NS(=O)(=O)c1ccc(NC(=O)CN(CCN(CC(=O)O)CC(=O)Nc2ccc(S(N)(=O)=O)cc2)CC(=O)O)cc1 [listing 1 of 2 here] | 210 nM | 
NS(=O)(=O)c1ccc(NC(=O)CN(CCN(CC(=O)O)CC(=O)Nc2ccc(S(N)(=O)=O)cc2F)CC(=O)O)c(F)c1 | 35 nM | 240 nM

Compound | Ki [1] | Ki [2]
Cn1nc(S(N)(=O)=O)s/c1=N/C(=O)CN(CCN(CCN(CC(=O)O)CC(=O)O)CC(=O)O)CC(=O)O | 19 nM | 
NS(=O)(=O)c1ccc(NC(=O)CN(CCN(CC(=O)O)c2ccccc2O)c2ccccc2O)c(I)c1 | 90 nM | 220 nM
NS(=O)(=O)c1cc(S(N)(=O)=O)c(NC(=O)CN(CCN(CCN(CC(=O)O)CC(=O)Nc2cc(Cl)c(S(N)(=O)=O)cc2S(N)(=O)=O)CC(=O)O)CC(=O)O)cc1Cl | 41 nM | 
NS(=O)(=O)c1nnc(NC(=O)CN(CCOCCOCCN(CC(=O)O)CC(=O)Nc2nnc(S(N)(=O)=O)s2)CC(=O)O)s1 | 4 nM | 55 nM
NS(=O)(=O)c1ccc(CNC(=O)CN(CCN(CCN(CC(=O)O)CC(=O)NCc2ccc(S(N)(=O)=O)cc2)CC(=O)O)CC(=O)O)cc1 [listing 1 of 2 here] | 37 nM | 
NS(=O)(=O)c1ccc(NC(=O)CN(CCOCCOCCN(CC(=O)O)CC(=O)Nc2ccc(S(N)(=O)=O)cc2)CC(=O)O)cc1 | 76 nM | 300 nM
NS(=O)(=O)c1ccc(NC(=O)CN(CCN(CCN(CC(=O)O)CC(=O)O)CC(=O)O)CC(=O)O)c(I)c1 | 29 nM | 
NS(=O)(=O)c1ccc(NC(=O)CN(CCN(CCN(CC(=O)O)CC(=O)Nc2ccc(S(N)(=O)=O)cc2I)CC(=O)O)CC(=O)O)c(I)c1 | 24 nM | 
NS(=O)(=O)c1ccc(NC(=O)CN(CCN(CC(=O)O)CC(=O)Nc2ccc(S(N)(=O)=O)cc2)CC(=O)O)cc1 [listing 2 of 2 here] | 230 nM | 
NS(=O)(=O)c1ccccc1NC(=O)CN(CCN(CCN(CC(=O)O)CC(=O)Nc1ccccc1S(N)(=O)=O)CC(=O)O)CC(=O)O | 330 nM | 
NS(=O)(=O)c1cc(S(N)(=O)=O)c(NC(=O)CN(CCN(CCN(CC(=O)O)CC(=O)O)CC(=O)O)CC(=O)O)cc1Cl | 52 nM | 
NS(=O)(=O)c1ccc(CNC(=O)CN(CCN(CCN(CC(=O)O)CC(=O)NCc2ccc(S(N)(=O)=O)cc2)CC(=O)O)CC(=O)O)cc1 [listing 2 of 2 here] | 21 nM | 
NS(=O)(=O)c1cc(S(N)(=O)=O)c(NC(=O)CN(CCN(CCN(CC(=O)O)CC(=O)O)CC(=O)O)CC(=O)O)c(Cl)c1Cl | 36 nM | 
NS(=O)(=O)c1nnc(NC(=O)CN(CCN(CC(=O)O)CC(=O)Nc2nnc(S(N)(=O)=O)s2)CC(=O)O)s1 [listing 1 of 2 here] | 12 nM | 
NS(=O)(=O)c1ccc(NNC(=O)CN(CCN(CCN(CC(=O)O)CC(=O)NNc2ccc(S(N)(=O)=O)cc2)CC(=O)O)CC(=O)O)cc1 | 430 nM | 
NS(=O)(=O)c1ccc(CCNC(=O)CN(CCN(CCN(CC(=O)O)CC(=O)NCCc2ccc(S(N)(=O)=O)cc2)CC(=O)O)CC(=O)O)cc1 [listing 1 of 2 here] | 16 nM | 
NS(=O)(=O)c1cccc(NC(=O)CN(CCN(CCN(CC(=O)O)CC(=O)Nc2cccc(S(N)(=O)=O)c2)CC(=O)O)CC(=O)O)c1 | 425 nM | 
NS(=O)(=O)c1nnc(NC(=O)CCNC(=O)CN(CCN(CCN(CC(=O)O)CC(=O)O)CC(=O)O)CC(=O)O)s1 | 16 nM | 
NS(=O)(=O)c1ccc(CNC(=O)CN(CCN(CC(=O)O)CC(=O)NCc2ccc(S(N)(=O)=O)cc2)CC(=O)O)cc1 [listing 2 of 2 here] | 62 nM | 
NS(=O)(=O)c1ccc(CCNC(=O)CN(CCN(CCN(CC(=O)O)CC(=O)O)CC(=O)O)CC(=O)O)cc1 | 36 nM | 
NS(=O)(=O)c1ccc(CNC(=O)CN(CCN(CCN(CC(=O)O)CC(=O)O)CC(=O)O)CC(=O)O)cc1 | 40 nM | 
NS(=O)(=O)c1ccc(CCOC(=O)CN(CCN(CCN(CC(=O)O)CC(=O)O)CC(=O)O)CC(=O)O)cc1 | 190 nM | 

Compound | Ki [1] | Ki [2]
NS(=O)(=O)c1ccc(CCNC(=O)CN(CCN(CC(=O)O)CC(=O)NCCc2ccc(S(N)(=O)=O)cc2)CC(=O)O)cc1 [listing 1 of 2 here] | 54 nM | 
NS(=O)(=O)c1ccc(NC(=O)CN(CCN(CCN(CC(=O)O)CC(=O)O)CC(=O)O)CC(=O)O)c(F)c1 | 29 nM | 
NS(=O)(=O)c1nnc(NC(=O)CN(CCN(CCN(CC(=O)O)CC(=O)Nc2nnc(S(N)(=O)=O)s2)CC(=O)O)CC(=O)O)s1 | 4 nM | 
NS(=O)(=O)c1ccc(NC(=O)CN(CCN(CCN(CC(=O)O)CC(=O)Nc2ccc(S(N)(=O)=O)cc2)CC(=O)O)CC(=O)O)cc1 | 100 nM | 
NS(=O)(=O)c1ccc(NC(=O)CN(CCN(CCN(CC(=O)O)CC(=O)Nc2ccc(S(N)(=O)=O)cc2Cl)CC(=O)O)CC(=O)O)c(Cl)c1 | 27 nM | 
NS(=O)(=O)c1nnc(NC(=O)CCNC(=O)CN(CCN(CCN(CC(=O)O)CC(=O)NCCC(=O)Nc2nnc(S(N)(=O)=O)s2)CC(=O)O)CC(=O)O)s1 | 8 nM | 
NS(=O)(=O)c1nc2ccc(NC(=O)CN(CCN(CCN(CC(=O)O)CC(=O)Nc3ccc4nc(S(N)(=O)=O)sc4c3)CC(=O)O)CC(=O)O)cc2s1 | 6 nM | 
NS(=O)(=O)c1ccc(COC(=O)CN(CCN(CCN(CC(=O)O)CC(=O)O)CC(=O)O)CC(=O)O)cc1 | 265 nM | 
NS(=O)(=O)c1ccc(NC(=O)CN(CCN(CCN(CC(=O)O)CC(=O)Nc2ccc(S(N)(=O)=O)cc2F)CC(=O)O)CC(=O)O)c(F)c1 | 18 nM | 
NS(=O)(=O)c1cccc(NC(=O)CN(CCN(CC(=O)O)CC(=O)Nc2cccc(S(N)(=O)=O)c2)CC(=O)O)c1 | 620 nM | 
NS(=O)(=O)c1nc2ccc(NC(=O)CN(CCN(CCN(CC(=O)O)CC(=O)O)CC(=O)O)CC(=O)O)cc2s1 | 9 nM | 
NS(=O)(=O)c1ccc(NC(=O)CN(CCN(CCN(CC(=O)O)CC(=O)O)CC(=O)O)CC(=O)O)c(Br)c1 | 27 nM | 
NS(=O)(=O)c1nnc(NC(=O)CN(CCN(CC(=O)O)CC(=O)Nc2nnc(S(N)(=O)=O)s2)CC(=O)O)s1 [listing 2 of 2 here] | 5 nM | 
Cn1nc(S(N)(=O)=O)s/c1=N/C(=O)CN(CCN(CC(=O)O)CC(=O)/N=c1/sc(S(N)(=O)=O)nn1C)CC(=O)O | 8 nM | 
NS(=O)(=O)c1ccc(NC(=O)CN(CCN(CCN(CC(=O)O)CC(=O)Nc2ccc(S(N)(=O)=O)cc2Br)CC(=O)O)CC(=O)O)c(Br)c1 | 21 nM | 
NS(=O)(=O)c1ccc(COC(=O)CN(CCN(CCN(CC(=O)O)CC(=O)OCc2ccc(S(N)(=O)=O)cc2)CC(=O)O)CC(=O)O)cc1 | 170 nM | 
NS(=O)(=O)c1cccc(NC(=O)CN(CCN(CCN(CC(=O)O)CC(=O)O)CC(=O)O)CC(=O)O)c1 | 500 nM | 
NS(=O)(=O)c1ccc(CCOC(=O)CN(CCN(CCN(CC(=O)O)CC(=O)OCCc2ccc(S(N)(=O)=O)cc2)CC(=O)O)CC(=O)O)cc1 | 115 nM | 
NS(=O)(=O)c1ccc(CCNC(=O)CN(CCN(CCN(CC(=O)O)CC(=O)NCCc2ccc(S(N)(=O)=O)cc2)CC(=O)O)CC(=O)O)cc1 [listing 2 of 2 here] | 25 nM | 
NS(=O)(=O)c1ccc(CCNC(=O)CN(CCN(CC(=O)O)CC(=O)NCCc2ccc(S(N)(=O)=O)cc2)CC(=O)O)cc1 [listing 2 of 2 here] | 13 nM | 
NS(=O)(=O)c1ccc(NC(=O)CN(CCN(CCN(CC(=O)O)CC(=O)O)CC(=O)O)CC(=O)O)c(Cl)c1 | 32 nM | 
NS(=O)(=O)c1nc2ccc(OCCOC(=O)CN(CCN(CCN(CC(=O)O)CC(=O)O)CC(=O)O)CC(=O)O)cc2s1 | 5 nM | 
